Results: PMC5775428, “Towards an experimental classification system for membrane active peptides” (Scientific Reports, 2018)
Where two headings read alike, the source gives them in different places.

Key:
Bacillus cereus = conditions: Bacillus cereus; for Minimum inhibitory concentration, Average: average of triplicates
Procedure: (§1) Antimicrobial activity was tested against three categories of human and plant pathogenic microorganisms: Gram-positive (Bacillus subtilis, Bacillus cereus, Staphylococcus aureus), Gram-negative (Escherichia coli, Pseudomonas aeruginosa, Erwinia carotovora, Pseudomonas syringae pv. tabaci, Xanthomonas campestris pv. citri) and yeasts (Candida albicans, Cryptococcus neoformans), as previously reported. […] The full list of peptide MICs was published in an accompanying paper, and is available in the current publication as supplementary dataset (Supplementary dataset 01).
(§2) The determination of the minimum inhibitory concentration (MIC) of peptides was performed as described in “Encrypted Antimicrobial Peptides from Plant Proteins”[7]. Briefly, MICs were determined following protocols M7-A10 and M27-A3 from Clinical & Laboratory Standards Institute (CLSI) for bacteria and yeasts, respectively. Different concentrations of IAPs (0.5 to 256 μM) were tested against several microorganisms in a final volume of 100 µL. Three biological repetitions, with 2 technical replicates each, were performed for each test, on polystyrene flat-bottom 96 wells microplates. The minimum inhibitory concentration (MIC) was defined as the concentration at which no cells were detected when visualized by optical microscopy. Please refer to the literature[7] for further details of the microbiological assays.

Bacillus subtilis = conditions: Bacillus subtilis; for Minimum inhibitory concentration, Average: average of triplicates
Procedure: as §1, §2

Candida albicans = conditions: Candida albicans; for Minimum inhibitory concentration, Average: average of triplicates
Procedure: as §1, §2

Cryptococcus neoformans = conditions: Cryptococcus neoformans; for Minimum inhibitory concentration, Average: average of triplicates
Procedure: as §1, §2

Erwinia carotovora = conditions: Erwinia carotovora; for Minimum inhibitory concentration, Average: average of triplicates
Procedure: as §1, §2

Escherichia coli = conditions: Escherichia coli; for Minimum inhibitory concentration, Average: average of triplicates
Procedure: as §1, §2

Pseudomonas aeruginosa = system: Pseudomonas aeruginosa
Procedure: as §1, §2

[1] = system: Pseudomonas syringae pv. tabaci; conditions: Pseudomonas syringae pv. tabaci; for Minimum inhibitory concentration, Average: average of triplicates
Procedure: as §1, §2

Staphylococcus aureus = conditions: Staphylococcus aureus; for Minimum inhibitory concentration, Average: average of triplicates
Procedure: as §1, §2

Xanthomonas campestris = conditions: for Minimum inhibitory concentration, Average: average of triplicates
Procedure: as §1, §2

[2] = CLSI M27-A3, 0.5 to 256 μM tested, triplicate 1, also published in ref 7
[3] = Pseudomonas aeruginosa, CLSI M7-A10, triplicate 1
[4] = Pseudomonas aeruginosa, average of triplicates
[5] = Pseudomonas aeruginosa, triplicate 2
[6] = Pseudomonas aeruginosa, triplicate 3

| Sequence | Minimum inhibitory concentration (Bacillus cereus; CLSI M7-A10, triplicate 1) [µM] | Minimum inhibitory concentration, Average (Bacillus cereus) [µM] | Minimum inhibitory concentration (Bacillus cereus; triplicate 2) [µM] | Minimum inhibitory concentration (Bacillus cereus; triplicate 3) [µM] | Minimum inhibitory concentration (Bacillus subtilis; CLSI M7-A10, triplicate 1) [µM] | Minimum inhibitory concentration, Average (Bacillus subtilis) [µM] | Minimum inhibitory concentration (Bacillus subtilis; triplicate 2) [µM] | Minimum inhibitory concentration (Bacillus subtilis; triplicate 3) [µM] | Minimum inhibitory concentration (Candida albicans; [2]) [µM] | Minimum inhibitory concentration, Average (Candida albicans) [µM] | Minimum inhibitory concentration (Candida albicans; triplicate 2) [µM] | Minimum inhibitory concentration (Candida albicans; triplicate 3) [µM] | Minimum inhibitory concentration (Cryptococcus neoformans; CLSI M27-A3, triplicate 1) [µM] | Minimum inhibitory concentration, Average (Cryptococcus neoformans) [µM] | Minimum inhibitory concentration (Cryptococcus neoformans; triplicate 2) [µM] | Minimum inhibitory concentration (Cryptococcus neoformans; triplicate 3) [µM] | Minimum inhibitory concentration (Erwinia carotovora; CLSI M7-A10, triplicate 1) [µM] | Minimum inhibitory concentration, Average (Erwinia carotovora) [µM] | Minimum inhibitory concentration (Erwinia carotovora; triplicate 2) [µM] | Minimum inhibitory concentration (Erwinia carotovora; triplicate 3) [µM] | also measured |
| --- | --- | --- | --- | --- | --- | --- | --- | --- | --- | --- | --- | --- | --- | --- | --- | --- | --- | --- | --- | --- | --- |
| KVLSKVHTLLKAVLAL [At02] | 2 | 3.3 | 4 | 4 | 1 | 1.0 | 1 | 1 | 8 | 8.0 | 8 | 8 | 4 | 4.0 | 4 | 4 | 1 | 1.0 | 1 | 1 | Minimum inhibitory concentration (Escherichia coli; CLSI M7-A10, triplicate 1): 2 µM; Minimum inhibitory concentration, Average (Escherichia coli): 2.0 µM; Minimum inhibitory concentration (Escherichia coli; triplicate 2): 2 µM; Minimum inhibitory concentration (Escherichia coli; triplicate 3): 2 µM; Minimum inhibitory concentration (Pseudomonas aeruginosa; [3]): 4 µM; Minimum inhibitory concentration, Average (Pseudomonas aeruginosa; [4]): 5.3 µM; Minimum inhibitory concentration (Pseudomonas aeruginosa; [5]): 4 µM; Minimum inhibitory concentration (Pseudomonas aeruginosa; [6]): 8 µM; Minimum inhibitory concentration ([1]; CLSI M7-A10, triplicate 1): 4 µM; Minimum inhibitory concentration, Average [1]: 4.0 µM; Minimum inhibitory concentration ([1]; triplicate 2): 4 µM; Minimum inhibitory concentration ([1]; triplicate 3): 4 µM; Minimum inhibitory concentration (Staphylococcus aureus; CLSI M7-A10, triplicate 1): 4 µM; Minimum inhibitory concentration, Average (Staphylococcus aureus): 4.0 µM; Minimum inhibitory concentration (Staphylococcus aureus; triplicate 2): 4 µM; Minimum inhibitory concentration (Staphylococcus aureus; triplicate 3): 4 µM; Minimum inhibitory concentration (Xanthomonas campestris; CLSI M7-A10, triplicate 1): 1 µM; Minimum inhibitory concentration, Average (Xanthomonas campestris): 1.0 µM; Minimum inhibitory concentration (Xanthomonas campestris; triplicate 2): 1 µM; Minimum inhibitory concentration (Xanthomonas campestris; triplicate 3): 1 µM |
| GLLFKELQKLIRYQIFIGK [Tc10] | 512 | 512.0 | 512 | 512 | 16 | 16.0 | 16 | 16 | 64 | 64.0 | 64 | 64 | 64 | 64.0 | 64 | 64 | 512 | 512.0 | 512 | 512 | Minimum inhibitory concentration (Escherichia coli; CLSI M7-A10, triplicate 1): 16 µM; Minimum inhibitory concentration, Average (Escherichia coli): 26.7 µM; Minimum inhibitory concentration (Escherichia coli; triplicate 2): 32 µM; Minimum inhibitory concentration (Escherichia coli; triplicate 3): 32 µM; Minimum inhibitory concentration (Pseudomonas aeruginosa): 128 µM; Minimum inhibitory concentration, Average (Pseudomonas aeruginosa): 128.0 µM; Minimum inhibitory concentration ([1]; CLSI M7-A10, triplicate 1): 512 µM; Minimum inhibitory concentration, Average [1]: 512.0 µM; Minimum inhibitory concentration ([1]; triplicate 2): 512 µM; Minimum inhibitory concentration ([1]; triplicate 3): 512 µM; Minimum inhibitory concentration (Staphylococcus aureus; CLSI M7-A10, triplicate 1): 512 µM; Minimum inhibitory concentration, Average (Staphylococcus aureus): 512.0 µM; Minimum inhibitory concentration (Staphylococcus aureus; triplicate 2): 512 µM; Minimum inhibitory concentration (Staphylococcus aureus; triplicate 3): 512 µM; Minimum inhibitory concentration (Xanthomonas campestris; CLSI M7-A10, triplicate 1): 128 µM; Minimum inhibitory concentration, Average (Xanthomonas campestris): 128.0 µM; Minimum inhibitory concentration (Xanthomonas campestris; triplicate 2): 128 µM; Minimum inhibitory concentration (Xanthomonas campestris; triplicate 3): 128 µM |
| GAKLAKKQVRALGKFFSF [At03] | 512 | 512.0 | 512 | 512 | 8 | 8.0 | 8 | 8 | 128 | 128.0 | 128 | 128 | 64 | 64.0 | 64 | 64 | 32 | 32.0 | 32 | 32 | Minimum inhibitory concentration (Escherichia coli; CLSI M7-A10, triplicate 1): 16 µM; Minimum inhibitory concentration, Average (Escherichia coli): 16.0 µM; Minimum inhibitory concentration (Escherichia coli; triplicate 2): 16 µM; Minimum inhibitory concentration (Escherichia coli; triplicate 3): 16 µM; Minimum inhibitory concentration (Pseudomonas aeruginosa; [3]): 512 µM; Minimum inhibitory concentration, Average (Pseudomonas aeruginosa; [4]): 512.0 µM; Minimum inhibitory concentration (Pseudomonas aeruginosa; [5]): 512 µM; Minimum inhibitory concentration (Pseudomonas aeruginosa; [6]): 512 µM; Minimum inhibitory concentration ([1]; CLSI M7-A10, triplicate 1): 8 µM; Minimum inhibitory concentration, Average [1]: 8.0 µM; Minimum inhibitory concentration ([1]; triplicate 2): 8 µM; Minimum inhibitory concentration ([1]; triplicate 3): 8 µM; Minimum inhibitory concentration (Staphylococcus aureus; CLSI M7-A10, triplicate 1): 512 µM; Minimum inhibitory concentration, Average (Staphylococcus aureus): 512.0 µM; Minimum inhibitory concentration (Staphylococcus aureus; triplicate 2): 512 µM; Minimum inhibitory concentration (Staphylococcus aureus; triplicate 3): 512 µM; Minimum inhibitory concentration (Xanthomonas campestris; CLSI M7-A10, triplicate 1): 32 µM; Minimum inhibitory concentration, Average (Xanthomonas campestris): 32.0 µM; Minimum inhibitory concentration (Xanthomonas campestris; triplicate 2): 32 µM; Minimum inhibitory concentration (Xanthomonas campestris; triplicate 3): 32 µM |
